Results taken from US5874436A, “Triphenylalkyl antimicrobial agents” (priority 1997, dated 1999).
In brackets after ≈: the same amount, converted by molar mass.

Assays:
Kinase A and Spo0F = biological target: T1, Kinase A and Spo0F (Bacillus subtilis, UniProt P16497); assay: Autophosphorylation of Kinase A and transphosphorylation of Spo0F assay (HPK in vitro assay); type: biochemical; settings: inhibitor concentrations from 1 to 500 μM, [32P]ATP, phosphoimager
T1 construct: made in house; host or cells: E. coli (recombinant, overexpressing)
T1 sequence (P16497 1-606): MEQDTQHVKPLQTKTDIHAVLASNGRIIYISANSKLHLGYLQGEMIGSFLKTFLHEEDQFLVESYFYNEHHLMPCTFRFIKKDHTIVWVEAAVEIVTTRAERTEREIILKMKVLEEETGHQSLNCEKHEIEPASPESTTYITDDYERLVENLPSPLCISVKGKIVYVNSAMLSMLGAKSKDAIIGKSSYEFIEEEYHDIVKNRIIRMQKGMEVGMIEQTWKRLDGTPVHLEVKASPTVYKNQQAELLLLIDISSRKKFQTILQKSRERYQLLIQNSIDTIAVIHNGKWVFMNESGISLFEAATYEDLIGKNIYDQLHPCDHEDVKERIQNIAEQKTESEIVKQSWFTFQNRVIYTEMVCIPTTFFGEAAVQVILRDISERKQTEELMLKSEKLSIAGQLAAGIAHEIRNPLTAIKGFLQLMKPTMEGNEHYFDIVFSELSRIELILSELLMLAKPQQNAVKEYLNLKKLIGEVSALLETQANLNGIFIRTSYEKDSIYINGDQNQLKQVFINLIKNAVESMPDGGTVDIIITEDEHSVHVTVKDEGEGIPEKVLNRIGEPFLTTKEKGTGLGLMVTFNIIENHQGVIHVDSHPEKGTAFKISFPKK
Procedure: 1. Autophosphorylation of Kinase A and Transphosphorylation of Spo0F Assay
To study the effect of the compounds of the present invention on the signal transduction process in bacteria, the inhibiting effect of the compounds on the sporulation operon proteins Kinase A and Spo0F was examined. Specifically, the inhibition of autophosphorylation of Kinase A and the transphosphorylation of Spo0F was determined in the following assays. The Spo0F response regulator is the primary substrate for phosphorylation by the protein kinase, Kin A, involved in the sporulation process in bacteria. See D. Burbulys, K. A. Trach, J. A. Hoch, Cell, 64, 545-552 (1991). Spo0F and KinA were prepared from recombinant E. coli overexpressing the proteins (J. Cavanagh et al, Amino Acids, 6, 131-140 (1994) and references therein).
The following stock reagents were either prepared and used promptly or stored at the indicated temperature:
8 X Salts : 2M KCl (5 mL), 1M MgCl2 (800 mL), 1M CaCl2 (100 mL), 10 mg/mL phenylmethylsulfonyl fluoride (200 mL), 1 M dithioreitol (50 mL), 0.25M Na2 EDTA (32 mL) and H2 O mL (-20° C.)
5×Loading Dye: 0.5M TRIS-HCl-pH 6.8 (7.5 mL), 10% SDS (2 mL) 0.1% bromophenol blue (0.5 mL), 100% glycerol (3 mL) and 12.5 M 2-mercaptoethanol (0.3 mL)
1-1.3 mg/mL KinA:15 mM TRIS-HCl, pH 8.0, 6 mM KCl; 4 mM 2-mercaptoethanol; 40% glycerol (-20° C.)
1 mg/mL Spo0F: 17.5 mM TRIS-HCl, pH 8.0; 0.7 mM KCl; 0.7 mM MgCl2; 0.7 mM CaCl2; 5mM 2-mercaptoethanol; 30% Glycerol (-20° C.)
5% Stacking Gel: 40% 29:1 acrylamide:bis acrylamide (1.25 mL), 0.5M TRIS-HCl, pH 6.8 (2.5 mL), 10% SDS (0.1 mL), D-H2 O (6.15 mL) 10% ammonium persulfate (100 mL) and TEMED (25 mL) SDS Running Buffer: TRIS-BASE (3.02 g), glycine (14.4 g) SDS (1 g), D-H2 O (to 1L)
The reaction mixture was prepared from 8×Salts (87 μL), 1M TRIS, pH 8 (118 μL), 50% glycerol (63 μL), Spo0F (14.1 μL) and KinA (7.0 μL). Microcentrifuge tubes were charged with the reaction mixture (18.5 μL) and a 1.0 mM solution of the test compound in 5% DMSO (18.5 μL), and incubated for 15 min on ice. 100 mM ATP solution (3.0 μl, containing 625 μCi [^32 P]ATP) was added, and the mixture left for 10 minutes at room temperature. The reaction was quenched with 5×loading dye (10 μL per tube) and the samples were loaded on a prepared 5% Stacking Gel, or stored on dry ice until ready for use. The prepared wells were filled with SDS Running Buffer, samples were loaded into the wells, and 80 volts were applied to the gel until the dye front reached the bottom of the stacking gel. The voltage was then increased to 250 volts until electrophoresis was complete. Radioactive bands in the gel corresponding to phosphorylated KinA and Spo0F were imaged and quantitated with a phosphoimager.
If either enzyme was inhibited (as evidenced by the absence of labelled protein in the developed gel), an IC50 was calculated by running the assay with a range of inhibitor concentrations from 1 to 500 μM. After electrophoresis of the reaction mixtures, percent inhibition was determined by measuring the concentration of radioactive phosphorus with a phosphoimager and calculating the values using a software program (BioRad Molecular Analyst).

selected microorganisms = assay: MIC antimicrobial assay (NCCLS microdilution broth method); type: cell-based
Procedure: 2. MIC Anitimicrobial Assay
The in vitro antimicrobial activity of the compounds was determined by the microdilution broth method following the test method from the National Committee for Laboratory Standards (NCCLS). This method is described in the NCCLS Document M7-A2, Vol.10, No.8 "Methods for Dilution Antimicrobial Susceptibility Test for Bacteria that Grow Aerobically--Second Edition."
In this method two-fold serial dilutions of drug in cation supplemented Mueller-Hinton broth are added to wells in microdilution trays. The test organisms are prepared by adjusting the turbidity of actively growing broth cultures so that the final concentration of test organism after it is added to the wells is approximately 5×10^4 CFUs/well).
Following inoculation of the microdilution trays, the trays are incubated at 35° C. for 16-20 hours and then read. […] The amount of growth in the wells containing the test compound is compared with the amount of growth in the growth-control wells (no test compound) used in each tray.

Structure (SMILES) | IC50 (Kinase A and Spo0F) [µM] | MIC (selected microorganisms) [µg/mL]
O=C(CC(c1ccccc1)(c1ccccc1)c1ccccc1)Nc1ccc(N2CCNCC2)cc1 [Example 1, 4-[4-(3,3,3-Triphenylpropanoylamino)phenyl]piperazine] | 200 | –
C1=C(c2ccc(OCCC(c3ccccc3)(c3ccccc3)c3ccccc3)cc2)CCNC1 [Example 2, 4-[4-(3,3,3-Triphenylpropyloxy)phenyl]-1,2,3,6-tetrahydropiperidine] | 170 | –
NCCc1ccc(OCCC(c2ccccc2)(c2ccccc2)c2ccccc2)cc1 [Example 3, 2-(4-(3,3,3-triphenylpropoxy)phenyl)ethylamine] | 14 | 2 to 4 (≈ 4.91 to 9.81 µM)
NCc1ccc(OCCC(c2ccccc2)(c2ccccc2)c2ccccc2)cc1 [Example 4, 4-(3,3,3-triphenylpropoxy)benzylamine] | 19 | –
N=C(N)NCCc1ccc(OCCC(c2ccccc2)(c2ccccc2)c2ccccc2)cc1 [Example 5] | 5 | 1 to 2 (≈ 2.22 to 4.45 µM)
NCCc1ccc(OCCC(c2ccc(Cl)cc2)(c2ccc(Cl)cc2)c2ccc(Cl)cc2)cc1 [Example 6] | 150 | –
NCCc1cccc(OCCC(c2ccccc2)(c2ccccc2)c2ccccc2)c1 [Example 7, 2-(3-(3,3,3-triphenylpropoxy)phenyl)ethylamine] | 80 | –
COc1ccc(CCN)cc1OCCC(c1ccccc1)(c1ccccc1)c1ccccc1 [Example 8, 2-(4-methoxy-3-(3,3,3-triphenylpropoxy)-phenyl)ethylamine] | 27 | 4 (≈ 9.14 µM)
N=C(N)NCCc1ccc(OCCC(c2ccc(Cl)cc2)(c2ccc(Cl)cc2)c2ccc(Cl)cc2)cc1 [Example 9, N-(2-(4-(3,3,3-tris(4-chlorophenyl)propoxy)-phenyl)ethyl)guanidine] | 21 | 8 (≈ 14.5 µM)
N=C(N)NCCc1ccc(OCCCCC(c2ccccc2)(c2ccccc2)c2ccccc2)cc1 [Example 10] | 15 | 2 to 4 (≈ 4.19 to 8.37 µM)
N=C(N)NCCc1ccc(OCCCC(c2ccccc2)(c2ccccc2)c2ccccc2)cc1 [Example 11] | 21 | –
O=C(O)CCc1ccc(OCCC(c2ccccc2)(c2ccccc2)c2ccccc2)cc1 [Example 12, 3-[4-(3,3,3-Triphenylpropoxy)phenyl]propionic acid] | 51 | 2 to 16 (≈ 4.58 to 36.7 µM)
O=C(O)Cc1ccc(OCCC(c2ccccc2)(c2ccccc2)c2ccccc2)cc1 [Example 13, 2-[4-(3,3,3-Triphenylpropoxy)phenyl]acetic acid] | 50 | 8 to 16 (≈ 18.9 to 37.9 µM)
O=C(O)CCc1ccc(SCCC(c2ccccc2)(c2ccccc2)c2ccccc2)cc1 [Example 14, 3-[4-(3,3,3-Triphenylpropylthio)phenyl]propionic acid] | 34 | 4 to 8 (≈ 8.84 to 17.7 µM)
O=C(O)CCCc1ccc(OCCC(c2ccccc2)(c2ccccc2)c2ccccc2)cc1 [Example 15, 4-[4-(3,3,3-Triphenylpropoxy)phenyl]butyric acid] | 14 | 8 to 64 (≈ 17.8 to 142 µM)
NCCc1ccc(NC(=O)CC(c2ccccc2)(c2ccccc2)c2ccccc2)cc1 [Example 16, N-[4-(2-Aminoethyl)phenyl]-3,3,3triphenylpropionamide] | 59 | 32 to 64 (≈ 76.1 to 152 µM)
O=C(O)c1ccc2cc(OCCC(c3ccccc3)(c3ccccc3)c3ccccc3)ccc2c1 [Example 17, 6-(3,3,3-Triphenylpropoxy)-2-naphthoic acid] | 300 | 4 to 64 (≈ 8.72 to 140 µM)
N=C(N)NCCc1ccc(NC(=O)CC(c2ccccc2)(c2ccccc2)c2ccccc2)cc1 [Example 18, N-[4-(2-Guanidinoethyl)phenyl]-3,3,3-triphenylpropionamide] | 51 | 4 to 16 (≈ 8.65 to 34.6 µM)
c1ccc(C(CCOc2ccc(CCC3=NCCO3)cc2)(c2ccccc2)c2ccccc2)cc1 [Example 19, 4.5-Dihydro-2-{2-[4-(3,3,3-triphenylpropoxy)-phenyl]ethyl} oxazole] | 260 | –
O=C(O)c1ccc(OCCC(c2ccccc2)(c2ccccc2)c2ccccc2)cc1 [Example 21, 4-(3,3,3-Triphenylpropoxy)benzoic acid] | 290 | –
O=C(O)C(O)c1ccc(OCCC(c2ccccc2)(c2ccccc2)c2ccccc2)cc1 (stereo not drawn) [Example 37, 2-[4-(3,3,3-Triphenylpropoxy)phenyl]glycolic acid] | 73 | –
O=C(O)CCc1ccccc1OCCC(c1ccccc1)(c1ccccc1)c1ccccc1 [Example 38, 3-[2-(3,3,3-Triphenylpropoxy)phenyl]propionic acid] | 27 | –
c1ccc(C(CCOc2ccc(-c3nnn[nH]3)cc2)(c2ccccc2)c2ccccc2)cc1 [Example 39, 5-[4-(3,3,3-Triphenylpropoxy)phenyl]-1H-tetrazole] | 110 | –
NCCCc1ccc(SCCC(c2ccccc2)(c2ccccc2)c2ccccc2)cc1 [Example 40, 3-[4-(3,3,3-Triphenylpropylthio)phenyl]propylamine] | 13 | –
O=C1NC(=O)C(c2ccc(OCCC(c3ccccc3)(c3ccccc3)c3ccccc3)cc2)S1 (stereo not drawn) [Example 41, 5-[4-(3,3,3-Triphenylpropoxy)phenyl]thiazolidine-2,4-dione] | 18 | –
O=C(O)c1c(O)cccc1OCCC(c1ccccc1)(c1ccccc1)c1ccccc1 [Example 42, 2-Hydroxy-6-(3,3,3-triphenylpropoxy)benzoic acid] | 85 | –
O=C(O)/C=C/c1cccc(OCCC(c2ccccc2)(c2ccccc2)c2ccccc2)c1 [Example 43, trans 3-(3,3,3-Triphenylpropoxy)cinnamic acid] | 40 | –
O=C(O)COc1cccc(OCCC(c2ccccc2)(c2ccccc2)c2ccccc2)c1 [Example 44, 3-(3,3,3-triphenylpropoxy)phenoxyacetic acid] | 71 | –
O=C(O)COc1ccccc1OCCC(c1ccccc1)(c1ccccc1)c1ccccc1 [Example 45, 2-(3,3,3-triphenylpropoxy)phenoxyacetic acid] | 20 | –
O=C(O)CCCOc1cccc(OCCC(c2ccccc2)(c2ccccc2)c2ccccc2)c1 [Example 46, 4-[3-(3,3,3-triphenylpropoxy)phenoxy]butyric acid] | 16 | –
